The source of these data is patent publication US7625945B2, “Andrographolide and analogues as inhibitors of TNFα and IL-1β expression” (Hutchison MediPharma Enterprises Ltd., priority 2004, dated 2009).

The structures appear in SMILES notation.

This test has as its system DNBS-induced colitis. As to the kind of experiment: In vivo assay: DNBS-induced distal colitis in rats. On the set-up: species or system Male Wistar rats. The conditions noted are these: DNBS-treated rats, 10 mg/kg i.p. As for the experimental part:
Male Wistar rats (170-190 g, provided by Chinese academy of science animal center, Shanghai) were housed (7˜8 rats per cage) in a controlled environment and fed with standard rodent chow and water. Distal colitis was induced to the rats according to the procedure described in Hogaboam C. M., European Journal of Pharmacology, 1996, 309: 261-269. Briefly, the rats were anaesthetized with 1% pentobarbital sodium. 2,4-Dinitrobenzene sulfonic acid (DNBS) in 0.25 ml of 30% ethanol (v/v) was introduced into the colon (8 cm proximal to the anus) via a PE 50 cannula. In the control group (blank-control), 30% ethanol (v/v), in stead of DNBS in ethanol, was introduced. Andrographolide (10 mg/kg, i.p.) was administered to a group of DNBS-treated rats 24 hours and 2 hours prior to the colitis induction and once daily thereafter for 5 days. The rats were weighed daily. All rats were sacrificed 6 days after the colitis induction, and colon, spleen, and thymus were removed and weighed. The colon weight/body weight ratio, spleen weight/body weight ratio, and thymus weight/body weight ratio were calculated. Samples of colon tissues located precisely 2 cm above the anal canal were obtained, fixed in 10% neutral-buffered formalin, embedded in paraffin, sectioned, and stained with hematoxylin/eosin. The samples were examined under microscope to determine severity of the lesions.

For the compound `C=C1CC[C@@H]2[C@](C)(CO)[C@H](O)CC[C@@]2(C)[C@@H]1C/C=C1/C(=O)OC[C@H]1O` [andrographolide], the “overall effect on DNBS-induced colitis” value is recorded as “effectively alleviated or even cured”. Under “colon sections hematoxylin/eosin, 6 days after induction”, the “microscopic examination of colon: severity of inflammation” value is given as “much less severe inflammation”. Moreover, where the note is “treatment for 6 days”, the “colon weight/body weight ratio” value is given as “decreased” and the “wasting syndrome (weight loss, diarrhea)” value is listed as “alleviated wasting syndrome”.
